This is an account of results in US20250197368A1 (priority 2020, published 2025).

Assay [1] has as its target human α2β3γ2 GABAARs (benzodiazepine site) (Homo sapiens (Human), UniProt P18507+P47869). As to the kind of experiment: In vitro radioligand binding assay ([3H]Ro15-1788 displacement), α2-GABAAR Ki. The method, then: The affinity (Ki) of compounds for the benzodiazepine site of human recombinant GABAARs was measured by their ability to inhibit the binding of the selective benzodiazepine antagonist [^3H]Ro15-1788 ([^3H] flumazenil).
Mouse L(tk^−) cells stably expressing human α1β3γ2, α2β3γ2, α3β3γ2, α5β3γ2 GABAARs were generated by transfection of the individual subunits in the dexamethasone-inducible expression vector pMSGneo in mouse L(tk^−) cells (Hadingham et al., 1993, Mol. Pharmacol. 43:970-975 and 1993, Mol. Pharmacol. 44:1211-1218).
L(tk^−) cells stably expressing human α1β3γ2, α2β3γ2, α3β3γ2, α5β3γ2 GABAARs were maintained in DMEM F12 medium supplemented with 10% Foetal Bovine Serum, 1% Penicillin/Streptomycin and 1 mg/mL Geneticin G418 in an incubator at 37° C. with a humidified atmosphere with 5% CO2. Dexamethasone was added to the culture medium to induce GABAAR expression.
L(tk−) cells were harvested and membranes were prepared for each receptor combination in either TE buffer (10 mM Tris·CI/0.1 mM EDTA, pH 7.5) or phosphate buffer (K2PO4 10 mM, pH 7.0) (Hadingham et al. (1992) Proc. Natl. Acad. Sci. USA; 89 (14): 6378-82). Protein concentration, receptor expression and the Kd of [^3H]Ro15-1788 were determined before Ki value of the compounds were evaluated. For Kd evaluation, saturation binding curves were obtained by incubating membrane with various concentrations of [^3H]Ro15-1788 (82.5 Ci/mM), with nonspecific binding measured in the presence of 1-3 μM TP003.
For Ki evaluation, cell membranes were incubated with 4 nM [^3H]Ro15-1788 along with a range of concentrations of test compound. Nonspecific binding was determined using 1-3 μM TP003. All incubations were performed for 1 hour at 4° C. in assay buffer. The total assay volume was 0.5 mL, containing 40 μg/well α1β3γ2, 30 μg/well α2β3γ2, 40 μg/well α3β3γ2 and 30 μg/well for α5β3γ2 of membrane protein. Incubations were terminated by filtration and washing with ice cold Tris-HCl buffer (50 mM, pH=7.4) over Whatman GF/B filters and the radioactivity of the filters was measured using liquid scintillation counting.
The % inhibition of [^3H]Ro15-1788 binding was plotted as a function of compound concentration and the IC50 calculated. From the IC50, the affinity (Ki) was calculated using the method of Cheng and Prusoff using the Kd values obtained for [^3H]Ro15-1788.

The test system of another assay is human α2β3γ2 GABAARs. The assay is described as follows: In vitro electrophysiological recording assay (automated patch-clamp), α2-GABAAR relative efficacy. It is filed as cell-based. To be noted: % efficacy normalised to diazepam; GABA EC10-20; concentration generally >= 100 times Ki. The method, then:
The efficacy of modulators was evaluated using the automated patch-clamp platforms QPatch16 (Sophion, Copenhagen, Denmark) or SyncroPatch 384PE (Nanion, Germany).
For QPatch electrophysiology testing L(tk^−) cells stably expressing human α1β3γ2, α2β3γ2, α3β3γ2, α5β3γ2 GABAARs were used. HEK293 cells stably expressing human α1β3γ2L, α2β3γ2L, α3β3γ2L and α5β3γ2L GABAARs were used for the SyncroPatch 384PE experiments.
All experiments were carried out at room temperature (20-22° C.) using a standard whole cell procedure and physiological solutions. Gigaseals were formed upon execution of a combined suction/voltage protocol with subsequent increased suction leading to the whole-cell configuration.
The currents recorded were acquired at either 1 KHz or 2 KHz and filtered using a Bessel filter. Whole-cell currents were measured at a holding potential of-65 mV (QPatch) or −80 mV (SyncroPatch).
For QPatch experiments, the extracellular solution contained of: 145 mM NaCl, 4 mM KCl, 1 mM MgCl2, 2 mM CaCl2), 10 mM HEPES, 10 mM D-glucose (pH 7.4), and the intracellular solution consisted of: 96 mM KCl, 28 mM CsCl, 25 mM KOH, 4.3 mM CaCl2), 1.4 mM MgCl2, 10 mM EGTA, 10 mM HEPES, 3 mM MgATP (pH 7.2). The osmolarities of the extracellular and intracellular solutions were 305 and 295 mOsm respectively.
For SyncroPatch experiments, the extracellular recording solution contained: 140 mM NaCl, 4 mM KCl, 2 mM CaCl2), 1 mM MgCl2, 10 mM HEPES, 5 mM glucose (pH 7.4 with NaOH and osmolarity of c. 300-310 mOsm). The intracellular recording solution consisted of: 90 mM KCl, 50 mM KF, 1.5 mM MgCl2, 11.1 mM EGTA and 10 mM HEPES (pH 7.2 with KOH and osmolarity of c. 300 mOsm). 2 mM of NaATP was added to the intracellular solution on the day of testing.
The effects of modulators were evaluated in the presence of a submaximal GABA concentration, giving typically less than 30% activation of the response elicited by a saturating GABA concentration. To check and ensure baseline current stability before compound addition, two to five consecutive applications of GABA EC10-20 separated by wash steps were performed before compound addition. The test compound was applied 1 min at least prior to co-application with GABA EC10-20. Following a further wash step, a saturating concentration of GABA was applied at the end of each recording, allowing the accurate evaluation for each cell of the percentage baseline activation elicited by the submaximal GABA applied.
The compounds were first dissolved in DMSO as a 10 mM stock and then further diluted to the testing concentrations so that the final DMSO concentration in the extracellular recording solution was 0.1% (QPatch) or 0.2% (SyncroPatch).
The % efficacy of modulators was determined from the GABA elicited currents recorded in the presence and absence of the test compound, using the formula:
[((compound peak current−leak)−(GABA peak current-leak))/(GABA peak current−leak)]*100,
where ‘leak’ is the leak baseline current at the holding potential, ‘compound peak current’ is the current elicited by co-application of compound and GABA, and ‘GABA peak current’ is the current elicited by GABA alone at the last GABA application before compound addition. The results were presented as ‘relative efficacy’ for each compound generally at a concentration equal or higher than 100 times their determined Ki. The relative efficacy of a compound was calculated by normalising its % efficacy to the corresponding % efficacy of diazepam that was separately determined.
(In general: The patch-clamp technique gives a direct electrical read-out from membranes.)

Molecules are shown by their SMILES.

human α2β3γ2 GABAARs (benzodiazepine site), sequence (P47869 29-451): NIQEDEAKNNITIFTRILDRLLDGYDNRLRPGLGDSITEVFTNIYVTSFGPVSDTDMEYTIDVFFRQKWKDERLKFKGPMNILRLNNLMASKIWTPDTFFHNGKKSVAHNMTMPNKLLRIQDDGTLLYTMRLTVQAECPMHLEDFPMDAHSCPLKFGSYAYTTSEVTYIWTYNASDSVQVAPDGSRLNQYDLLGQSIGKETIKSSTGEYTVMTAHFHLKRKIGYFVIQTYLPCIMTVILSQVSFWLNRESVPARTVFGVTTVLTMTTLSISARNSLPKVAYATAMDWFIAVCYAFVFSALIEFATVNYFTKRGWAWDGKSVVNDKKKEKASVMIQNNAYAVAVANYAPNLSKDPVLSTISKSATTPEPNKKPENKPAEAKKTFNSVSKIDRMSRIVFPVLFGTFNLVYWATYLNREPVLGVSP
human α2β3γ2 GABAARs (benzodiazepine site), sequence (P28472 26-473 partner): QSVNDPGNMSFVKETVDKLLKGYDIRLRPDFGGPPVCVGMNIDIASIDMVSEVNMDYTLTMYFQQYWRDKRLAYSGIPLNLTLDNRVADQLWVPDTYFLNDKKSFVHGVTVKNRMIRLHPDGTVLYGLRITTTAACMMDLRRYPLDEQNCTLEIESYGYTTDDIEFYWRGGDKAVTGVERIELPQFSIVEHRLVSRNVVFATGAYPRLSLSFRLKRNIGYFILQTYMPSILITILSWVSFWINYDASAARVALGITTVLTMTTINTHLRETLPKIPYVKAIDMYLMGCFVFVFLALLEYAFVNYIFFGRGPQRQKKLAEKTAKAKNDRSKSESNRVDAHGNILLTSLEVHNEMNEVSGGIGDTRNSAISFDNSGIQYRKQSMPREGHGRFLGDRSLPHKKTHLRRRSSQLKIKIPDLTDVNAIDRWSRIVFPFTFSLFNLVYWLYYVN
human α2β3γ2 GABAARs (benzodiazepine site), sequence (P18507 40-475): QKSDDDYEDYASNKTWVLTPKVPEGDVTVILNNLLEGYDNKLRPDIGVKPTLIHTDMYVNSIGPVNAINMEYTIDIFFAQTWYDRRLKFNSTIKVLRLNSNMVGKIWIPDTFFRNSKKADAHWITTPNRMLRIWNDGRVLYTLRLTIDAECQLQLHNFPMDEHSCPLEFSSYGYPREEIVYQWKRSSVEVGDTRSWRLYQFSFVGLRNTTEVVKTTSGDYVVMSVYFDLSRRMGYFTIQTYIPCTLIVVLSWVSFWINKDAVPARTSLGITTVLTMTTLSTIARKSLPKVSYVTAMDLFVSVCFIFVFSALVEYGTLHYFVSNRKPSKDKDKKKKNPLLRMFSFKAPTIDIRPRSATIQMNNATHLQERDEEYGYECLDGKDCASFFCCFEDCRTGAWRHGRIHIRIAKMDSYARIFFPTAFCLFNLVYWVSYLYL

For orientation: Ki means a dissociation constant, usually derived from enzyme kinetics or from competition with a known ligand. Take `CCCNC(=O)c1c(N)c2cccc(-c3cc(OCc4ccncc4)ccc3F)c2[nH]c1=O` [Example 113, 4-Amino-8-[2-fluoro-5-(4-pyridylmethoxy)phenyl]-2-oxo-N-propyl-1H-quinoline-3-carboxamide]: the Ki in assay [1] was found to be 0.12 nM. In addition, in the assay with human α2β3γ2 GABAARs, the “α2-GABAAR Relative Efficacy (vs. Diazepam)” value (“α2-GABAAR Relative Efficacy” below) was determined as 0.24.
The corresponding values for `CCCNC(=O)c1c(N)c2cccc(-c3cc(OCC4COC4)ccc3F)c2[nH]c1=O` [Example 136, 4-Amino-8-[2-fluoro-5-(oxetan-3-ylmethoxy)phenyl]-2-oxo-N-propyl-1H-quinoline-3-carboxamide] are 0.9 nM and 0.24.
The corresponding values for `CCCNC(=O)c1c(N)c2cccc(-c3ccnc(C)n3)c2[nH]c1=O` [Example 38, 4-Amino-8-(2-methylpyrimidin-4-yl)-2-oxo-N-propyl-1,2-dihydroquinoline-3-carboxamide] are 1.09 nM and 0.18.
The corresponding values for `CCCNC(=O)c1c(N)c2cccc(-c3cc(COc4ccccn4)ncc3F)c2[nH]c1=O` [Example 104, 4-Amino-8-(5-fluoro-2-((pyridin-2-yloxy)methyl)pyridin-4-yl)-2-oxo-N-propyl-1,2-dihydroquinoline-3-carboxamide] are 2.08 nM and 0.27.
With `CCCNC(=O)c1c(N)c2cccc(-c3cncc(OC4CC4)c3)c2[nH]c1=O` [Example 28, 4-Amino-8-(5-cyclopropoxypyridin-3-yl)-2-oxo-N-propyl-1,2-dihydroquinoline-3-carboxamide], the Ki in assay [1] amounted to 9.07 nM. In addition, the “α2-GABAAR Relative Efficacy” value with human α2β3γ2 GABAARs stood at 0.2.
The corresponding values for `CCCNC(=O)c1c(N)c2cccc(-c3cc(OCc4ncccc4C)ccc3F)c2[nH]c1=O` [Example 103, 4-Amino-8-[2-fluoro-5-[(3-methyl-2-pyridyl)methoxy]phenyl]-2-oxo-N-propyl-1H-quinoline-3-carboxamide] are 1.68 nM and 0.37.
The corresponding values for `CCCNC(=O)c1c(N)c2cccc(-c3nc(C)ncc3C#N)c2[nH]c1=O` [Example 39, 4-Amino-8-(5-cyano-2-methyl-pyrimidin-4-yl)-2-oxo-N-propyl-1H-quinoline-3-carboxamide] are 9.31 nM and −0.06.
In the case of `CCCNC(=O)c1c(N)c2cccc(-c3cc(OCc4ccc(OC)cn4)ccc3F)c2[nH]c1=O` [Example 96, 4-Amino-8-[2-fluoro-5-[(5-methoxy-2-pyridyl)methoxy]phenyl]-2-oxo-N-propyl-1H-quinoline-3-carboxamide], the Ki in assay [1] was found to be 0.92 nM. In addition, in the assay on human α2β3γ2 GABAARs, the “α2-GABAAR Relative Efficacy” value was determined as 0.24.
The corresponding values for `CCCNC(=O)c1c(N)c2cccc(-c3cc(OCc4ccc(C#N)cn4)ccc3F)c2[nH]c1=O` [Example 99, 4-Amino-8-[5-[(5-cyano-2-pyridyl)methoxy]-2-fluoro-phenyl]-2-oxo-N-propyl-1H-quinoline-3-carboxamide] are 0.24 nM and 0.28.
The corresponding values for `CCCNC(=O)c1c(N)c2cccc(-c3cc(OCc4cscn4)ccc3F)c2[nH]c1=O` [Example 119, 4-Amino-8-(2-fluoro-5-(thiazol-4-ylmethoxy)phenyl)-2-oxo-N-propyl-1,2-dihydroquinoline-3-carboxamide] are 0.31 nM and 0.38.
The corresponding values for `COc1ccncc1-c1cccc2c(N)c(C(=O)NCC3CC3)c(=O)n(C)c12` [Example 78, 4-Amino-N-(cyclopropylmethyl)-8-(4-methoxy-3-pyridyl)-1-methyl-2-oxo-quinoline-3-carboxamide] are 2.11 nM and 0.70.
With `CCCNC(=O)c1c(N)c2cccc(-c3cc(OCC)ncc3F)c2[nH]c1=O` [Example 35, 4-Amino-8-(2-ethoxy-5-fluoropyridin-4-yl)-2-oxo-N-propyl-1,2-dihydroquinoline-3-carboxamide], the Ki in assay [1] came to 2.45 nM. The “α2-GABAAR Relative Efficacy” value in the assay on human α2β3γ2 GABAARs is given as 0.52.
The corresponding values for `COc1ccncc1-c1cccc2c(N)c(C(=O)NCCO)c(=O)[nH]c12` [Example 64, 4-Amino-N-(2-hydroxyethyl)-8-(4-methoxy-3-pyridyl)-2-oxo-1H-quinoline-3-carboxamide] are 84.6 nM and 0.34.
The corresponding values for `CCCNC(=O)c1c(N)c2cccc(-c3cnccc3OCC)c2[nH]c1=O` [Example 19, 4-Amino-8-(4-ethoxypyridin-3-yl)-2-oxo-N-propyl-1,2-dihydroquinoline-3-carboxamide] are 21.5 nM and 0.23.
The corresponding values for `CCCNC(=O)c1c(N)c2cccc(-c3cccc(OCc4ccc(F)cn4)c3)c2[nH]c1=O` [Example 94, 4-Amino-8-[3-[(5-fluoro-2-pyridyl)methoxy]phenyl]-2-oxo-N-propyl-1H-quinoline-3-carboxamide] are 2.42 nM and 0.28.
For the molecule `CCCNC(=O)c1c(N)c2cccc(-c3cnccn3)c2[nH]c1=O` [Example 45, 4-Amino-2-oxo-N-propyl-8-(pyrazin-2-yl)-1,2-dihydroquinoline-3-carboxamide], the Ki in assay [1] was determined as 5.04 nM. Moreover, in the assay with human α2β3γ2 GABAARs, the “α2-GABAAR Relative Efficacy” value is recorded as 0.11.
For `CCCNC(=O)c1c(N)c2cccc(-c3nc(COC)ccc3F)c2[nH]c1=O` [Example 10, 4-Amino-8-(3-fluoro-6-(methoxymethyl)pyridin-2-yl)-2-oxo-N-propyl-1,2-dihydroquinoline-3-carboxamide], in assay [1], the Ki was 1.5 nM. Further, the “α2-GABAAR Relative Efficacy” value with human α2β3γ2 GABAARs came to 0.22.
